Key:
[1] = Drug accumulation in small intestine of KM mouse measured after 2 hrs; assay type: ADME, tissue-based; settings: read-out: Drug uptake
[2] = Drug accumulation in blood of KM mouse measured after 2 hrs; assay type: ADME, tissue-based; settings: read-out: Drug uptake
[3] = Drug accumulation in bone of KM mouse measured after 2 hrs; assay type: ADME, tissue-based, Bone element; settings: read-out: Drug uptake
[4] = Drug accumulation in heart of KM mouse measured after 10 mins; assay type: ADME, tissue-based; settings: in vivo
[5] = Drug accumulation in brain of KM mouse measured after 10 mins; assay type: ADME, tissue-based; settings: read-out: Drug uptake
[6] = Drug accumulation in intestine of KM mouse measured after 30 mins; assay type: ADME, tissue-based; settings: read-out: Drug uptake
[7] = Drug accumulation in liver of KM mouse measured after 10 mins; assay type: ADME, tissue-based; settings: read-out: Drug uptake
[8] = Drug distribution in KM mouse liver xenografted with human HCT-116 cells measured after 1 hr; assay type: ADME, tissue-based; settings: read-out: Drug uptake
[9] = Stability of compound in PBS assessed as compound remaining measure after 1 to 2 hrs; assay type: physicochemical; settings: buffer; time 1-2 hrs
[10] = Stability of compound in mouse plasma assessed as compound remaining measured after 1 to 2 hrs; assay type: ADME, cell-free; settings: time 1-2 hrs
[11] = Retention time of the compound; assay type: physicochemical
[12] = Drug uptake in mouse liver measured after 60 min; assay type: ADME, tissue-based; settings: in vivo, 1 h
[13] = Drug uptake in mouse liver measured after 10 mins; assay type: ADME, tissue-based; settings: in vivo
[14] = Lipophilicity, logP of compound; assay type: physicochemical; settings: octanol/water
[15] = Drug uptake in human HCT-116 cells measured after 30 mins; assay type: ADME, cell-based; settings: hct-116, 0.5 h
[16] = Drug uptake in human MCF7 cells measured after 1 hr; assay type: ADME, cell-based; settings: mcf7, 1 h
[17] = Drug uptake in human HCT-15 cells measured after 1 hr; assay type: ADME, cell-based; settings: hct-15, 1 h
[18] = Drug uptake in human HCT-116 cells at 10 nM measured after 30 min; assay type: ADME, cell-based; settings: hct-116, 0.5 h, 0.01 µM
[19] = Drug uptake in human MCF7 cells measured after 30 mins in presence of 2-(4-bromophenyl)-4-(2-(2-(2-fluoroethoxy)ethoxy)ethoxy)quinazoline; assay type: ADME, cell-based; settings: mcf7, 0.5 h
[20] = Drug uptake in human HCT-15 cells measured after 30 mins in presence of 2-(4-bromophenyl)-4-(2-(2-(2-fluoroethoxy)ethoxy)ethoxy)quinazoline; assay type: ADME, cell-based; settings: hct-15, 0.5 h
[21] = Drug distribution in KM mouse tumor xenografted with HCT-116 cells measured after 1 hr; assay type: ADME, tissue-based, Neoplasm; settings: read-out: Drug uptake
[22] = Drug distribution in KM mouse tumor xenografted with human HCT-116 cells measured after 1 hr block group; assay type: ADME, tissue-based, Neoplasm; settings: read-out: Drug uptake
[23] = Drug distribution in KM mouse blood xenografted with human HCT-116 cells measured after 1 hr; assay type: ADME, tissue-based; settings: read-out: Drug uptake
[24] = Drug distribution in KM mouse blood xenografted with human HCT-116 cells measured after 1 hr block group; assay type: ADME, tissue-based; settings: read-out: Drug uptake
[25] = Drug distribution in KM mouse brain xenografted with human HCT-116 cells measured after 1 hr; assay type: ADME, tissue-based; settings: read-out: Drug uptake
[26] = Drug distribution in KM mouse brain xenografted with human HCT-116 cells measured after 1 hr block group; assay type: ADME, tissue-based; settings: read-out: Drug uptake
[27] = Drug distribution in KM mouse heart xenografted with human HCT-116 cells measured after 1 hr; assay type: ADME, tissue-based; settings: read-out: Drug uptake
[28] = Drug distribution in KM mouse heart xenografted with human HCT-116 cells measured after 1 hr block group; assay type: ADME, tissue-based; settings: read-out: Drug uptake
[29] = Drug distribution in KM mouse liver xenografted with human HCT-116 cells measured after 1 hr block group; assay type: ADME, tissue-based; settings: read-out: Drug uptake
[30] = Drug distribution in KM mouse spleen xenografted with human HCT-116 cells measured after 1 hr; assay type: ADME, tissue-based; settings: read-out: Drug uptake
[31] = Drug distribution in KM mouse spleen xenografted with human HCT-116 cells measured after 1 hr block group; assay type: ADME, tissue-based; settings: read-out: Drug uptake
[32] = Drug distribution in KM mouse lung xenografted with human HCT-116 cells measured after 1 hr; assay type: ADME, tissue-based; settings: read-out: Drug uptake
[33] = Drug distribution in KM mouse lung xenografted with human HCT-116 cells measured after 1 hr block group; assay type: ADME, tissue-based; settings: read-out: Drug uptake
[34] = Drug distribution in KM mouse kidney xenografted with human HCT-116 cells measured after 1 hr; assay type: ADME, tissue-based; settings: read-out: Drug uptake
[35] = Drug distribution in KM mouse kidney xenografted with human HCT-116 cells measured after 1 hr block group; assay type: ADME, tissue-based; settings: read-out: Drug uptake
[36] = Drug distribution in KM mouse pancreas xenografted with human HCT-116 cells measured after 1 hr; assay type: ADME, tissue-based; settings: read-out: Drug uptake
[37] = Drug distribution in KM mouse pancreas xenografted with human HCT-116 cells measured after 1 hr block group; assay type: ADME, tissue-based; settings: read-out: Drug uptake
[38] = Drug distribution in KM mouse muscle xenografted with human HCT-116 cells measured after 1 hr; assay type: ADME, tissue-based, Muscle tissue; settings: read-out: Drug uptake
[39] = Drug distribution in KM mouse muscle xenografted with human HCT-116 cells measured after 1 hr block group; assay type: ADME, tissue-based, Muscle tissue; settings: read-out: Drug uptake
[40] = Drug distribution in KM mouse bone xenografted with human HCT-116 cells measured after 1 hr; assay type: ADME, tissue-based, Bone element; settings: read-out: Drug uptake
[41] = Drug distribution in KM mouse bone xenografted with human HCT-116 cells measured after 1 hr block group; assay type: ADME, tissue-based, Bone element; settings: read-out: Drug uptake
[42] = Drug distribution in KM mouse stomach xenografted with human HCT-116 cells measured after 1 hr; assay type: ADME, tissue-based; settings: read-out: Drug uptake
[43] = Drug distribution in KM mouse stomach xenografted with human HCT-116 cells measured after 1 hr block group; assay type: ADME, tissue-based; settings: read-out: Drug uptake
[44] = Drug distribution in KM mouse intestine xenografted with human HCT-116 cells measured after 1 hr; assay type: ADME, tissue-based; settings: read-out: Drug uptake
[45] = Drug distribution in KM mouse intestine xenografted with human HCT-116 cells measured after 1 hrs block group; assay type: ADME, tissue-based; settings: read-out: Drug uptake
[46] = Ratio of drug level in tumor to muscle in KM mouse xenografted with human HCT-116 cells measured after 1 hr; assay type: ADME, tissue-based
[47] = Ratio of drug level in tumor to muscle in KM mouse xenografted with human HCT-116 cells measured after 1 hr block group; assay type: ADME, tissue-based
[48] = Ratio of drug level in tumor to blood in KM mouse xenografted with human HCT-116 cells measured after 1 hr; assay type: ADME, tissue-based
[49] = Ratio of drug level in tumor to blood in KM mouse xenografted with human HCT-116 cells measured after 1 hr block group; assay type: ADME, tissue-based
[50] = Drug uptake in KM mouse liver xenografted with human HCT-116 cells measured after 40 to 60 mins by PET imaging based analysis; assay type: ADME, tissue-based; settings: time 40-60 min
[51] = Drug uptake in KM mouse gastrointestinal tract xenografted with human HCT-116 cells measured after 40 to 60 mins by PET imaging based analysis; assay type: ADME, tissue-based; settings: time 40-60 min
[52] = Drug uptake in KM mouse intestine xenografted with human HCT-116 cells measured after 80 mins by PET imaging based analysis; assay type: ADME, tissue-based; settings: 1.333 h

Question: Which results are given for `[18F]CCOCCOCCOc1nc(-c2ccc(Br)cc2)nc2ccccc12`?
Answer: tissue uptake at 2 h [1]: 8.37 %ID/g; tissue uptake at 2 h [2]: 3.97 %ID/g; tissue uptake at 2 h [3]: 5.62 %ID/g; Drug uptake [4]: Active; tissue uptake at 10 min [5]: 7.94 %ID/g; tissue uptake at 0.5 h [6]: 10.8 %ID/g; tissue uptake at 10 min [7]: 10.2 %ID/g; tissue uptake at 1 h [8]: 9.99 %ID/g; Stability [9]: > 90%; Stability [10]: > 90%; Retention_time [11]: 2.97 min; Drug uptake [12]: 37.63%; Drug uptake [13]: 83.7%; logP [14]: 3.88; Drug uptake [15]: 35.27%; Drug uptake [16]: 25.26%; Drug uptake [17]: 25.61%; Drug uptake [18]: 23.64%; Drug uptake [19]: 13.62%; Drug uptake [20]: 18.35%; tissue uptake at 1 h [21]: 4.76 %ID/g; tissue uptake at 1 h [22]: 3.31 %ID/g; tissue uptake at 1 h [23]: 4.15 %ID/g; tissue uptake at 1 h [24]: 3.3 %ID/g; tissue uptake at 1 h [25]: 7.34 %ID/g; tissue uptake at 1 h [26]: 6.56 %ID/g; tissue uptake at 1 h [27]: 6.4 %ID/g; tissue uptake at 1 h [28]: 5.23 %ID/g; tissue uptake at 1 h [29]: 9.5 %ID/g; tissue uptake at 1 h [30]: 6.45 %ID/g; tissue uptake at 1 h [31]: 5.62 %ID/g; tissue uptake at 1 h [32]: 5.66 %ID/g; tissue uptake at 1 h [33]: 5.42 %ID/g; tissue uptake at 1 h [34]: 8.49 %ID/g; tissue uptake at 1 h [35]: 7.65 %ID/g; tissue uptake at 1 h [36]: 8.21 %ID/g; tissue uptake at 1 h [37]: 7.53 %ID/g; tissue uptake at 1 h [38]: 4.92 %ID/g; tissue uptake at 1 h [39]: 4.2 %ID/g; tissue uptake at 1 h [40]: 2.81 %ID/g; tissue uptake at 1 h [41]: 2.44 %ID/g; tissue uptake at 1 h [42]: 1.75 %ID/g; tissue uptake at 1 h [43]: 1.6 %ID/g; tissue uptake at 1 h [44]: 8.84 %ID/g; tissue uptake at 1 h [45]: 7.1 %ID/g; Ratio [46]: 0.98; Ratio [47]: 0.79; Kp at 1 h [48]: 1.16; Kp at 1 h [49]: 1.01; Drug uptake [50]: Active; Drug uptake [51]: Active; Drug uptake [52]: Active

Source: ChEMBL document CHEMBL5329194, “Design, Synthesis, and Evaluation of 18F-Labeling CYP1B1 PET Tracer Based on 2-Phenylquinazolin” (Bioorg Med Chem Lett, 2023)
